Test results: patent publication US20170095565A1, “CHEMICALLY MODIFIED SMALL MOLECULES” (Nektar Therapeutics, priority 2003, published 2017)
Counter-ions that a name gives are not always drawn. Like-named read-outs stand apart in the source and are kept apart here.

How the values were obtained:
[1] = Cell-based permeability in Calu-3 cells; format: in vitro ADME; details: human
Description: In vitro cell-based experiments (in a Calu-3 assay) were performed for PEG-FITC conjugates. The Calu-3 cells were cultured with an apical air-interface to mimic the in vivo epithelium.

[2] = Lung residence after intratracheal administration (BAL, BAL cells, residual lung, serum); format: in vivo, rats; details: for half-life: rat, other: intratracheal (IT), 30 μg
Description: To determine the effect of PEG length on residence time in the lung, a series of in vivo experiments was performed in which each PEG-FITC species was administered intratracheally (IT) to rats, and the amount remaining in the lung was determined at progressive time points. For each species, 30 μg PEG-FITC, prepared in PBS/0.5% BSA, was administered IT to rats (300 μL of a 100 μg/mL solution). […] Following the lavage, lungs were excised, and samples of serum were extracted. The resulting lavage solution was then centrifuged to pellet the cellular fraction (BAL cells) and separate it from the BAL supernatant.
Samples from BAL, BAL cells and serum were read directly in microtiter plates with no prior treatment. To quantitate PEG-FITC remaining in the residual lung material, however, the excised lungs were homogenized and PEG-FITC was extracted in ethanol.
For all samples, quantitation was performed by interpolation from a standard curve generated from known concentrations of the relevant molecule prepared in the correlating matrix. Thus for samples of BAL and BAL cells, the standard samples were prepared in 0.9% NaCl, for serum samples, the standards were prepared in commercially obtained rat serum, and for lung extracts, the standard samples were prepared in PBS: Ethanol (1:3).
For BAL studies, the total amount remaining was calculated for each animal from the product of the concentration and the BAL volume recorded. For BAL cells, the pellet was resuspended in 1 mL; the amount present was calculated accordingly. For residual lung tissue, the amount present in both lungs (μg/lung) was calculated from the product of the concentration and the homogenate volume. Note that although the nominal dose delivered in each experiment was 30 μg, the dosing solution was analyzed from the same standard curve for each experiment and the actual delivered dose was calculated. The data shown throughout this specification are thus corrected for each PEG-FITC species respectively and are represented as percentage dose administered. The doses delivered in each experiment are represented in Table VIII below.

[3] = PEG-CIPRO absorption from lung after IT administration; details: Cipro and PEG-Cipro
Description: In vivo absorption data was collected through rat studies, in which, following IT administration to rats, whole lungs were excised and analyzed for test article concentration.

Papp [1] [×10⁻⁶ cm/s] | Portion of dose associated with BAL cells ([2]; 10 min) | Dose recovered in BAL ([2]; 10 min following IT administration) | Serum peak as proportion of administered dose ([2]; 10 min post dose) | Peak amount in serum ([2]; 10 min post dose, based on rat serum volume of approximately 8 mL) | Dose recovered in combined lung-derived fractions ([2]; 10 min post-dose) | Elimination from lung (rat IT) ([2]; fluorescein, PEG and PEG-FITC) [h⁻¹] | BAL k-el ([2]; rat IT, BAL supernatant) | BAL t1/2-el ([2]; rat IT, elimination half-life from BAL) [min] | half-life ([2]; bronchoalveolar lavage (BAL) supernatant, rat IT, elimination half-life from BAL, read-out: BAL t1/2-el) [min] | half-life ([2]; combined lung compartments, rat IT, combined lung compartments, read-out: Lung t1/2-el (converted)) [min] | BAL t90 ([2]; time at which 90% of the dose would be eliminated) [h] | BAL t99 ([2]; time at which 99% of the dose would be eliminated) [h] | Elimination from lung (rat IT) [3] [h⁻¹] | Compound
0.34 | approximately 13% | less than 50% | less than 10% | approximately 2 μg | less than 50% | 1.38 | 1.3253 | 31.4 | < 31.2 | 30.1 | 1.74 | 3.5 |  | O=C1OC2(c3ccc(O)cc3Oc3cc(O)ccc32)c2ccccc21 [Sodium fluorescein, sodium fluorescein]
 |  |  |  |  |  |  |  |  |  |  |  |  | 10.24 | O=C(O)c1cn(C2CC2)c2cc(N3CCNCC3)c(F)cc2c1=O [Cipro HCl, ciprofloxacin]
